Assay results reported in a melting point compilation (Tetko et al.; mined from patent text by program, amines drawn as free bases though some values may be those of a salt).
Residues, ends and D or L forms follow the SMILES beside them.

Compound | melting point [°C]
Clc1cc(-c2ccncc2)ccn1 | 193 to 196
N#Cc1cc(-c2c3ccccc3cc3sc4ccccc4c23)cc(C#N)c1O | 274 to 276
N#Cc1ccc(NC(=O)[C@H]2NCC[C@@H]2O)c2ccccc12 | 174 to 176
CS(=O)(=O)c1ccc(-c2coc(=O)n2-c2ccc(Br)cc2)cc1 | 217 to 219
O=[N+]([O-])c1cccnc1NCc1ccccc1 | 81 to 82
OC1CCN(c2nc(-c3ccccc3)nc3ccccc23)C1 (configuration not stated) | 180 to 182
Oc1ccc2c(CCC3CCN(Cc4ccccc4)CC3)noc2c1 | 148 to 149
CCC(OC)c1cccc2nc3n(c12)CCCN3c1ccc(Cl)cc1Cl (configuration not stated) | 151 to 153
CC1(C)CCC(C)(C)c2cc3sc(-c4ccc(C(=O)O)cc4)cc3cc21 | 291 to 292
O=CCCNc1[nH]c(-c2ccc(F)cc2)nc1-c1ccccc1 | 201 to 202
O=C1c2ccccc2COc2c(Br)cccc21 | 127 to 130
COc1ccc(S(=O)(=O)N2CCc3cccc(-c4cc(OC)c(OC)c(OC)c4)c32)cc1 | 202 to 205
COc1cc(Nc2nccc(-c3ccc(O)cc3)n2)cc(OC)c1OC | 200 to 202
CCN(CC)CC#CCCC(=O)C(O)(c1ccccc1)C1CCCC1 (configuration not stated) | 128 to 129
NC(=O)[C@@H]1[C@H](Nc2c(Br)cnc3[nH]c(-c4ccccc4-n4cccn4)nc23)[C@H]2C=C[C@@H]1C2 | 120
CCOC(=O)c1cccc2c(=O)cc(-c3ccc(OCc4ccc5ccccc5c4)cc3)oc12 | 245 to 249
CC(C)(O)c1ccc(CCl)cc1 | 101 to 103
Cc1ccc2c(Cl)cc(I)c(O)c2n1 | 85 to 93
Cc1ccnc2c(Oc3ccccc3N)cccc12 | 160 to 161
CN(C(=O)On1ccnn1)c1ccccc1 | 105 to 106
Cc1cc(N)n(-c2ccc(Cl)c(Cl)c2)n1 | 110 to 112
O=C1N=NN=C2N=CN=C12 | 230 to 234
O=c1ccc2c(-n3cccn3)nccc2[nH]1 | > 300
Clc1cccc2[nH]c3c4ccccc4nc-3c(Cl)c12 | 275 to 277

Compound | melting point [°C]
O=Cc1cc(-c2cccc(Cl)c2)c2cc(C(c3ccc(Cl)cc3)c3cccnc3)ccc2n1 (configuration not stated) | 168
CCOC(=O)c1nnc2n1-c1ccccc1C(c1ccccc1F)=NC2 | 195 to 197
Cc1ccc(/C=C/C(=O)N[C@@H]2N=C(c3ccccc3)c3ccccc3N(C)C2=O)cc1 | 133 to 135
c1cc2nc3c(n2nc1N1CCCCC1)CCCC3 | 184 to 185
C=CCCc1ccc(C#N)c(O)n1 | 122 to 125
c1cc(Sc2cccc3cnccc23)c2ccncc2c1 | 138 to 140
C=C(Cn1ccnc1)c1ccccc1O | 139 to 141
CC12CCC3c4ccc(O)cc4CCC3C1CCC2=CCl (configuration not stated) | 130 to 133
Cc1nc2cc3c(cc2s1)C1(CO3)C(=O)Nc2ccccc21 (configuration not stated) | > 250
c1cc(CN2CCOCC2)cc(-n2cnc3cc(-c4ccoc4)cnc32)c1 | 182 to 184
O=C(Oc1ccc(OC(=O)c2ccc(O)c(O)c2)c2ccccc12)c1ccc(O)c(O)c1 | 261
CN1CCC(OC2c3ccccc3CCn3cc(-c4ccc(NC(=O)C(C)(C)C)cc4)nc32)CC1 (configuration not stated) | 120
O=c1cc(-c2ccc3c(c2)CCCC3)[nH]c2ccccc12 | 241 to 250
CCCN(CCC)C1Cc2c(OC)ccc3ncn(c23)C1 (configuration not stated) | 46 to 49
CON=C(C1=Nc2ccc(Cl)cc2C(c2ccccc2F)=[N+]([O-])C1)[N+](=O)[O-] | 207 to 209
Cn1c(C(F)(F)F)cc(F)c(-c2ccc(Cl)cc2)c1=O | 120 to 122
c1ccc(CCN2CCN(c3n[nH]c4ccccc34)CC2)cc1 | 118 to 120
Cn1ccn(CC#CCn2ccnc2)c1=O | 106 to 109
COc1cc2c(c(OC(C)=O)c1)C1CCC3(C)C(O)CCC3C1CC2 (configuration not stated) | 107 to 110
COc1ccc2c(c1)-c1nc(-c3ccccc3C)c(N)n1CC2 | 160
O=C(CCc1oc(-n2cnc3ccccc32)nc1-c1ccc(Cl)cc1)N1CCS(=O)(=O)C1 | 136 to 137
COc1ccc(-n2nc(C(C)(C)C)cc2NC(=O)c2nccc3cc(Oc4cc(NC(C)=O)ncn4)ccc23)cc1 | 156
Oc1cc(-c2ccccc2)cc(-c2ccccc2)c1 | 97
O=c1cc(-c2ccccc2)sn1-c1nc2ccccc2s1 | 201 to 202

Continued, values first:

melting point [°C] | Compound
98 to 102 | O=C(O)c1ccc(OCCNC(=O)C2Cc3ccccc3N2S(=O)(=O)c2ccc(-c3ccc(F)cc3Cl)cc2)cc1F (configuration not stated)
76 to 78 | O=C(CO)NCc1ccc2ccn(C3CCN(CCc4ccc(F)cc4)CC3)c2c1
79 to 82 | C=C(CC)CNc1cccc(-c2ccnc3c(C(=O)c4cccs4)cnn23)c1
72.5 to 74.5 | COC(=O)C(=O)c1nccn1Cc1cccs1
205 to 207 | O=C1Nc2ccccc2N(C(=O)CN2CCCCC2CN2CCCC2)c2cscc21 (configuration not stated)
120 to 122 | CC(C)[Si](C(C)C)(C(C)C)n1cc(SC(=O)c2ccccc2)c(C(=O)c2ccccc2)c1
117 to 120 | CCCCCCCCCCCCCCCCCCOc1cc(C(N)=O)cc([N+](=O)[O-])c1
43 | CCCC(O)(C=Cc1ccccc1)CC(=O)OC (configuration not stated)
119 | Cc1cc(N(C)[C@H]2CN(C(=O)CC#N)CC[C@H]2C)n2ncnc2n1
298 to 300 | O=C1NC2(C(=O)O)CC3CC1C2C3 (configuration not stated)
160 to 162 | COc1ccc(C(=O)c2ccc(NC(C)=O)cc2)cc1
205 to 206 | COc1cc(C=C2N=C(C)OC2=O)ccc1OC(C)=O
168 to 169 | CC1Cc2ccccc2CN(CCC(N)=O)C1=O (configuration not stated)
98 to 100 | CCOC(=O)C1=C(C(OCC)OCC)NC(C)=C(C(=O)OCCO)C1c1cccc([N+](=O)[O-])c1 (configuration not stated)
76 to 78 | COc1cc(OC)nc(NC(=O)NS(=O)(=O)Nc2ccc(F)cc2C(=O)C2CC2)n1
104 to 105 | COc1ccc2nn(C)cc2c1C1CC1CNC(C)=O (configuration not stated)
102 to 103 | CNC(=O)S(=O)(=O)Nc1sc(CC(C)C)cc1-c1ccc(Cn2c(-c3ccccc3)nc(OC)c2C=O)cc1
234 to 236 | CSCCC(N)C(=O)NC(CCSC)C(=O)O (stereo not drawn) (H-Met-Met-OH; configuration not given here)
90 to 92 | O=C(O)CCc1cccc(Oc2ccccc2Cl)c1O
121 to 123 | CC1=CC(O)C(OC(=O)c2cccc(N)c2)C(C)(C)CC1=O (configuration not stated)
233 to 238 | CS(=O)(=O)c1ccc2nc(N)[nH]c2c1
176 to 178 | Cc1ccc(-c2c(NS(=O)(=O)c3ccc(C(C)(C)C)cc3)ncnc2OCCOc2ccc(C(C)O)cc2)cc1 (configuration not stated)
113 to 116 | COC(=O)C1=C(C)NC(C)=C(C(=O)OC)C1c1cccc(NC(=S)NNC(=O)CN2CCC(c3cccc(OC)c3)CC2)c1
126 to 128 | CN(Cc1ccccc1)Cc1c(-c2ccc(N)cc2)sc2c1c(=O)c(C(=O)c1ccccc1)cn2Cc1c(F)cccc1F
50 | COc1cccc(C(O)CNCCN)c1 (configuration not stated)
71 to 72 | O=C(O)CCCCOc1ccccc1Cl
131 to 133 | CC1=C(C(=O)OC(C)C)[C@@H](c2cccc(Cl)c2)NC(=O)N1C(N)=O

melting point [°C] | Compound
184 to 185 | CCOC(=O)CN1Cc2c(C)cccc2NC1=O
94 to 97 | O=C(c1cccs1)c1cnn2c(-c3ccc(F)c(N(C(=O)OCC(Cl)(Cl)Cl)C(=O)OCC(Cl)(Cl)Cl)c3)ccnc12
90 | COC(=S)CCC[C@@H](O)[C@@H](c1ccccc1)c1ccc2ccccc2c1 (relative stereo)
54 to 57 | CC(C)C(=O)NCCO
93 to 94 | Oc1nn(Cc2ccccc2)cc1CCCC1OCCO1
80 to 82 | COC(=O)Nc1cccc(F)c1I
152 to 153 | CC(C(=O)O)c1ccc(-n2cc(Cl)cn2)cc1 (configuration not stated)
130 to 131 | COC(=O)C1=Cc2ccc(OCc3nc(-c4ccccc4)oc3C)cc2CC1
192 to 194 | Cc1c(Br)ccc(S(C)(=O)=O)c1C=NO
178 to 181 | CCCCn1c(=O)c(NC(=O)Nc2c(C(C)C)cccc2C(C)C)c(-c2cccc(OC)c2)c2cccnc21
170 | CCOC(=O)/C=C/c1ccc(OCCOC)cc1NC(=O)c1ccc(Cl)cc1Cl
39 to 45 | CC(C)C(C)(C#N)N1C(=O)C=C(Nc2ccccc2CO)C1=O (configuration not stated)
189 to 190 | CC(C)(C)OC(=O)NC(Cc1ccccc1)C(=O)Nc1nc(CC(=O)O)cs1 (configuration not stated)
155 to 158 | NC(=O)N(c1ccc(-c2c(CCO)sc3ncnc(N)c23)cc1)c1cccc(C(F)(F)F)c1
135 to 140 | CC(=O)OC(C)c1ccccc1CS(N)(=O)=O (configuration not stated)
101 to 102 | CC(C(=O)O)c1ccc(C2=CCCCC2)cc1 (configuration not stated)
220 to 221 | O=C1Nc2ccccc2N(C(=O)CN2C(=O)CCCC2=O)C2CCC(Cc3ccccc3)C12 (configuration not stated)
151 to 153 | CCOC(=O)C1=C(CO)NC(SC)=NC1c1ccccc1SC (configuration not stated)
120 | CN(C)C=C(C(=O)c1ccccc1)C(=O)c1ccccc1
91 | CON=C(C#N)C(=O)NC(=O)NCCCCCC(=O)OC
123 to 124 | CCOC(=O)CNC(=O)C=C(c1ccc(Cl)cc1)c1ccc(Cl)cc1
129 to 130 | Cc1ccc(S(=O)(=O)NC2CCCC2NC(=O)OC(C)(C)C)cc1 (configuration not stated)
73 to 75 | CCOC(=O)c1c(C)nc2c(nc(C)n2C)c1Cl
> 260 | CCOC(=O)c1cnc2ccc(F)cc2c1O
182 to 183 | O=C(O)COc1ccc(-c2cc(O)c(SCCc3ccccc3)c(=O)o2)cc1
212 to 213 | CCOC(=O)COC1CCN(C(=O)[C@H](C)NC(=O)c2ccc(C(N)=NO)cc2)CC1
207 to 208 | CCCCCS(=O)(=O)NC(=O)c1ccc2nc(C)n(Cc3ccc(N(C)C(=O)C(C)(C)C)cc3Cl)c2n1
